Experimental data reported in patent publication US7276519B2, “Thieno[3,2-b]pyridine-6-carbonitriles and thieno[2,3-b]pyridine-5-carbonitriles as protein kinase inhibitors” (Wyeth, priority 2002, dated 2007).
pIC50: −log10 of the molar value. “And” between values parts separate entries of the source, which are not always exact repeats. Equal entries are not always repeated. Where two headings read alike, the source gives them in different places.

Experiments:
[1] = molecular target: T1, Recombinant human Src enzyme (Homo sapiens, UniProt P12931); experiment: Src kinase assay (LANCE FRET); type: biochemical; conditions: Table 3; 100 μM ATP, biotinylated Cdk1 peptide substrate
T1 construct: purchased PanVera P3044
Experimental: Recombinant human Src enzyme was obtained from PanVera (P3044). […] Homogeneous fluorescence resonance energy transfer kinase assays were performed using the europium/APC detection format (LANCE, Perkin Elmer). Src enzyme (10 ng) was mixed with biotinylated peptide (final concentration 2 μM), 50 mM Hepes (pH 7.5), 10 mM MgCl2, 20 μg/ml BSA, 0.001% Brij-35 (sigma), 100 μM ATP, 1% DMSO. The kinase reaction was incubated for 70 min at 37° C. The reaction was stopped with EDTA at a final concentration of 30 mM EDTA/25 mM Hepes (pH 7.5)/10 μg/ml BSA. The mixture was combined with Eu-labeled anti-phosphotyrosine antibody PT66 (Perkin Elmer, AD0068) and Streptavidin Surelight-APC (Perkin Elmer, CR130-100) in 50 mM Hepes (pH 7.5)/20 μg/ml BSA, and incubated for 30 min according to manufacturer's specifications. […] Multiple entries for a given compound indicate that it was tested multiple times.

[2] = molecular target: T2, Rat2 fibroblasts stably transformed with v-Src/Hu Lck fusion gene (Homo sapiens, UniProt P06239, cells depend on it, form not given); experiment: Anchorage independent Lck-transformed fibroblast proliferation assay; type: cell-based, rat; conditions: Table 3; read-out: Lck Cells IC50
T2 construct: Candidates are e.g. Schmidt-Ruppin A (P00524) or Prague C (P00526); The human Lck catalytic domain stands in place of the v-Src catalytic domain
Experimental: Anchorage Independent Lck-Transformed Fibroblast Proliferation Assay
Rat2 fibroblasts stably transformed with a plasmid containing a CMV promotor controlled v-Src/Hu Lck fusion gene in which the catalytic domain of human Lck was inserted in place of the v-Src catalytic domain in the v-Src gene are used for the measurement of src dependent suspension growth. Ultra-low cluster plates (Costar # 3474) are seeded with 10,000 cells per well on Day 1. Compound is added in serial two-fold dilutions from 10 micromolar to 0.009 micromolar on Day 2 and MTS reagent (Promega) is added on Day 5 (100 microliters of MTS/medium mix+100 microliters of medium already on the cells and the absorbance is measured at 490 nm. The results are analyzed as follows to yield an IC50 for proliferation (micromolar units) as follow: % inhibition=(Abs490 nm sample−blank)/(Abs490 nm no cmpd control−blank)×100%. The results obtained for representative compounds of this invention are listed in Table 2. Multiple entries for a given compound indicate that it was tested multiple times.

[3] = system: Rat2 fibroblasts stably transformed with v-Src/Hu c-Src fusion gene; experiment: Anchorage independent Src-transformed fibroblast proliferation assay; type: cell-based, rat
Experimental: Anchorage Independent Src-Transformed Fibroblast Proliferation Assay Rat2 fibroblasts stably transformed with a plasmid containing a CMV promotor controlled v-Src/Hu c-Src fusion gene in which the catalytic domain of human c-Src was inserted in place of the v-Src catalytic domain in the v-Src gene are used for the measurement of src dependent suspension growth. […] Multiple entries for a given compound indicate that it was tested multiple times.

[4] = Rattus norvegicus, Rat2, read-out: Src Cells IC50 μM or % inhib at 10 μM (IC50 values), Table 3
[5] = read-out: Src Cells IC50 μM or % inhib at 10 μM (IC50 values), Table 3
[6] = Rattus norvegicus, Rat2, Table 3, read-out: Src Cells IC50 μM or % inhib at 10 μM (IC50 values)
[7] = Table 3, read-out: Src Cells IC50 μM or % inhib at 10 μM (IC50 values)

T1 sequence (P12931 whole entry): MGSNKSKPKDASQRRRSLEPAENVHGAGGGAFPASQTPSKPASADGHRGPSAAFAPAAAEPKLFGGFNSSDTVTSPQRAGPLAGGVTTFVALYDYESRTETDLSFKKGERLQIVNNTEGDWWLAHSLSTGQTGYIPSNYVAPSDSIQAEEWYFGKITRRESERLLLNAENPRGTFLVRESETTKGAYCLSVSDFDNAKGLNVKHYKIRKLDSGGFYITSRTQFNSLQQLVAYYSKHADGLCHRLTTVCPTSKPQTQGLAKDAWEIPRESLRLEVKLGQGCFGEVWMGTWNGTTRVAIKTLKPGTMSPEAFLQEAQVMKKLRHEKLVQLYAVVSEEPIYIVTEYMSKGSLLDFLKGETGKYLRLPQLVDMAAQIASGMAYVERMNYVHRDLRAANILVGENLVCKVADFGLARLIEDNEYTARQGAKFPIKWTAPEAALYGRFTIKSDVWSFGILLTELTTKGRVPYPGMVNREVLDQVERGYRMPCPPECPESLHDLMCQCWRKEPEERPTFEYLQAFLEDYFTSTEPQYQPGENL
T2 sequence (P06239 whole entry, change not shown, the tested form may be a part): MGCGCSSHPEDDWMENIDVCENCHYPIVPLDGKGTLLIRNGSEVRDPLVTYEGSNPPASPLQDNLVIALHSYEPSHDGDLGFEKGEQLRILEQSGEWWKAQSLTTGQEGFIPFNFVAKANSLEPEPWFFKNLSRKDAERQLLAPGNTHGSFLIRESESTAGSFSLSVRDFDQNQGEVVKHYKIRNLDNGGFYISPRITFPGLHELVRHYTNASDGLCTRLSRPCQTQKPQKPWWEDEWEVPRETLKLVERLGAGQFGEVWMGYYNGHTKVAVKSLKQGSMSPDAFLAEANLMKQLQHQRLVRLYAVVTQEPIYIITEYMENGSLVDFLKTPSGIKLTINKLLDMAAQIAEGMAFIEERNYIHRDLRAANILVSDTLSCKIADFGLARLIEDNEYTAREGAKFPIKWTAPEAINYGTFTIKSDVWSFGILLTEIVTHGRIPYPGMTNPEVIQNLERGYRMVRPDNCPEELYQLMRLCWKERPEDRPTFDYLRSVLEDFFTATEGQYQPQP

CCN1CCN(Cc2ccc(-c3cc4ncc(C#N)c(Nc5cc(OC)c(Cl)cc5Cl)c4s3)cc2)CC1 [Example 70, 7-[(2,4-dichloro-5-methoxyphenyl)amino]-2-{4-[(4-ethylpiperazin-1-yl)methyl]phenyl}thieno[3,2-b]pyridine-6-carbonitrile]
melting point: 198 to 200 °C
pIC50 [1]: 8.14 and 8.04
GI50 [2]: 120 nM and 110 nM
IC50 [3, 4]: 0.68 µM
IC50 [3, 5]: 0.58 µM

COc1cc(Nc2c(C#N)cnc3cc(-c4ccc(CN(C)CCN(C)C)cc4)sc23)c(Cl)cc1Cl [Example 72, 7-[(2,4-dichloro-5-methoxyphenyl)amino]-2-(4-{[[2-(dimethylamino)ethyl](methyl)amino]methyl}phenyl)thieno[3,2-b]pyridine-6-carbonitrile]
pIC50 [1]: 8.03 and 7.82
GI50 [2]: 120 nM and 77 nM
IC50 [3, 6]: 1.3 µM
IC50 [3, 7]: 0.7 µM

COc1cc(Nc2c(C#N)cnc3cc(-c4ccc(N(C)C)cc4)sc23)c(Cl)cc1Cl [Example 73, 7-[(2,4-dichloro-5-methoxyphenyl)amino]-2-[4-(dimethylamino)phenyl]thieno[3,2-b]pyridine-6-carbonitrile]
melting point: 255 to 258 °C
pIC50 [1]: 6.92 and 7.03
GI50 [2]: 1200 nM and 1100 nM
IC50 [3, 4]: 1.4 µM
IC50 [3, 5]: 1.1 µM

COc1cc(Nc2c(C#N)cnc3cc(-c4cccc(CN(C)C)c4)sc23)c(Cl)cc1Cl [Example 75, 7-[(2,4-dichloro-5-methoxyphenyl)amino]-2-{3-[(dimethylamino)methyl]phenyl}thieno[3,2-b]pyridine-6-carbonitrile]
melting point: 204 to 206 °C
pIC50 [1]: 7.58 and 7.46
GI50 [2]: 320 nM and 270 nM
IC50 [3, 6]: 1.5 µM
IC50 [3, 7]: 0.97 µM

COc1cc(Nc2c(C#N)cnc3cc(-c4csc(CN(C)C)c4)sc23)c(Cl)cc1Cl [Example 80, 7-[(2,4-dichloro-5-methoxyphenyl)amino]-2-{5-[(dimethylamino)methyl]thien-3-yl}thieno[3,2-b]pyridine-6-carbonitrile]
melting point: 184 to 186 °C
pIC50 [1]: 7.89 and 7.85
GI50 [2]: 74 nM and 73 nM
IC50 [3, 4]: 0.79 µM
IC50 [3, 5]: 0.58 µM

COc1cc(Nc2c(C#N)cnc3cc(-c4ccsc4CN4CCN(C)CC4)sc23)c(Cl)cc1Cl [Example 84, 7-[(2,4-dichloro-5-methoxyphenyl)amino]-2-{2-[(4-methylpiperazin-1-yl)methyl]thien-3-yl}thieno[3,2-b]pyridine-6-carbonitrile]
melting point: 218 to 219 °C
pIC50 [1]: 6.49 and 6.24 and 6.46
GI50 [2]: 3400 nM
IC50 [3, 4]: 3.3 µM

COCCNCc1ccc(-c2cc3ncc(C#N)c(Nc4cc(OC)c(Cl)cc4Cl)c3s2)cc1 [Example 92, 7-[(2,4-dichloro-5-methoxyphenyl)amino]-2-(4-{[(2-methoxyethyl)amino]methyl}phenyl)thieno[3,2-b]pyridine-6-carbonitrile]
melting point: 162 to 164 °C
pIC50 [1]: 8.06 and 7.96
GI50 [2]: 145 nM and 103 nM
IC50 [3, 6]: 0.829 µM
IC50 [3, 7]: 0.486 µM

COc1cc(Nc2c(C#N)cnc3cc(-c4ccc(CNCCSC)cc4)sc23)c(Cl)cc1Cl [Example 93, 7-[(2,4-dichloro-5-methoxyphenyl)amino]-2-[4-({[2-(methylthio)ethyl]amino}methyl)phenyl]thieno[3,2-b]pyridine-6-carbonitrile]
melting point: 154 to 156 °C
pIC50 [1]: 7.82 and 7.80
GI50 [2]: 341 nM and 276 nM
IC50 [3, 6]: 1.22 µM
IC50 [3, 7]: 0.638 µM

COc1cc(Nc2c(C#N)cnc3cc(-c4ccc(CN5CCSCC5)cc4)sc23)c(Cl)cc1Cl [Example 94, 7-[(2,4-dichloro-5-methoxyphenyl)amino]-2-[4-(thiomorpholin-4-ylmethyl)phenyl]thieno[3,2-b]pyridine-6-carbonitrile]
melting point: 198 to 201 °C
pIC50 [1]: 7.24 and 7.34
GI50 [2]: 932 nM and 907 nM and 1170 nM
IC50 [3, 4]: 5.52 µM
IC50 [3, 5]: 2.92 µM and 3.17 µM

COc1cc(Nc2c(C#N)cnc3cc(-c4ccc(CN5CCNCC5)cc4)sc23)c(Cl)cc1Cl [Example 95, 7-[(2,4-dichloro-5-methoxyphenyl)amino]-2-[4-(piperazin-1-ylmethyl)phenyl]thieno[3,2-b]pyridine-6-carbonitrile]
melting point: 218 to 220 °C
pIC50 [1]: 8.08 and 8.16 and 8.28
GI50 [2]: 193 nM and 133 nM and 168 nM

COc1cc(Nc2c(C#N)cnc3cc(-c4ccc(CN5CCN(C)CC5)cn4)sc23)c(Cl)cc1Cl [Example 103, 7-[(2,4-dichloro-5-methoxyphenyl)amino]-2-{5-[(4-methylpiperazin-1-yl)methyl]pyridin-2-yl}thieno[3,2-b]pyridine-6-carbonitrile]
melting point: 229 to 232 °C
pIC50 [1]: 7.96 and 8.02
GI50 [2]: 58 nM and 71 nM
IC50 [3, 6]: 0.401 µM
IC50 [3, 7]: 0.445 µM

CCCCNCc1ccc(-c2cc3ncc(C#N)c(Nc4cc(OC)c(Cl)cc4Cl)c3s2)cc1 [Example 104, 2-{4-[(butylamino)methyl]phenyl}-7-[(2,4-dichloro-5-methoxyphenyl)amino]thieno[3,2-b]pyridine-6-carbonitrile]
melting point: 167 to 169 °C
pIC50 [1]: 8.00 and 7.92
GI50 [2]: 252 nM and 235 nM
IC50 [3, 6]: 0.837 µM
IC50 [3, 7]: 0.939 µM

COc1cc(Nc2c(C#N)cnc3cc(-c4ccc(CN5CC[S+]([O-])CC5)cc4)sc23)c(Cl)cc1Cl [Example 105, 7-[(2,4-dichloro-5-methoxyphenyl)amino]-2-{4-[(1-oxidothiomorpholin-4-yl)methyl]phenyl}thieno[3,2-b]pyridine-6-carbonitrile]
melting point: 242 to 245 °C
pIC50 [1]: 8.07 and 8.15
GI50 [2]: 222 nM and 235 nM
IC50 [3, 6]: 0.473 µM
IC50 [3, 7]: 0.55 µM

CCN(CC)Cc1ccc(-c2cc3ncc(C#N)c(Nc4cc(OC)c(Cl)cc4Cl)c3s2)cc1 [Example 106, 7-[(2,4-dichloro-5-methoxyphenyl)amino]-2-{4-[(diethylamino)methyl]phenyl}thieno[3,2-b]pyridine-6-carbonitrile]
melting point: 160 to 162 °C
pIC50 [1]: 8.00 and 8.18
GI50 [2]: 103 nM and 95 nM and 58 nM and 71 nM

COc1cc(Nc2c(C#N)cnc3cc(-c4ccc(CNCCCO)cc4)sc23)c(Cl)cc1Cl [Example 107, 7-[(2,4-dichloro-5-methoxyphenyl)amino]-2-(4-{[(3-hydroxypropyl)amino]methyl}phenyl)thieno[3,2-b]pyridine-6-carbonitrile]
melting point: 141 to 143 °C
pIC50 [1]: 8.05 and 7.96
GI50 [2]: 63 nM and 65 nM
IC50 [3, 6]: 0.531 µM
IC50 [3, 7]: 0.543 µM

COc1cc(Nc2c(C#N)cnc3cc(-c4ccc(CN5CCS(=O)(=O)CC5)cc4)sc23)c(Cl)cc1Cl [Example 111, 7-[(2,4-dichloro-5-methoxyphenyl)amino]-2-{4-[(1,1-dioxidothiomorpholin-4-yl)methyl]phenyl}thieno[3,2-b]pyridine-6-carbonitrile]
pIC50 [1]: 7.80
GI50 [2]: 283 nM and 428 nM
IC50 [3, 6]: 0.572 µM
IC50 [3, 7]: 0.411 µM

COc1cc(Nc2c(C#N)cnc3cc(-c4ccc(CN5CCN(S(C)(=O)=O)CC5)cc4)sc23)c(Cl)cc1Cl [Example 122, 7-[(2,4-dichloro-5-methoxyphenyl)amino]-2-(4-{[4-(methylsulfonyl)piperazin-1-yl]methyl}phenyl)thieno[3,2-b]pyridine-6-carbonitrile]
melting point: 211 to 213 °C
pIC50 [1]: 7.74 and 7.64
GI50 [2]: 897 nM and 1080 nM and 1560 nM

COc1cc(Nc2c(C#N)cnc3cc(-c4cccc(CN(C)C)n4)sc23)c(Cl)cc1Cl [Example 128, 7-[(2,4-dichloro-5-methoxyphenyl)amino]-2-{6-[(dimethylamino)methyl]pyridin-2-yl}thieno[3,2-b]pyridine-6-carbonitrile]
melting point: 221 to 223 °C
pIC50 [1]: 7.18 and 7.16
GI50 [2]: 539 nM and 557 nM
